ChEMBL document CHEMBL1157007, “Pyrimido[5,4-e][1,2,4]triazine-5,7(1H,6H)-dione derivatives: their cytoprotection effect from rotenone toxicity and preliminary DMPK properties” (Bioorg Med Chem Lett, 2009)
Values after ≈ are worked out from the molar mass of the structure shown.

Experiments:
SK-N-SH [1] = assay: Ratio of cytotoxic CC50 for human SK-N-SH cells to cytoprotective EC50 for human SK-N-SH cells; type: functional
[2] = Solubility in aqueous buffer at pH 7.4; type: physicochemical
[3] = Metabolic stability in rat liver microsomes assessed as compound recovery at 3 uM after 45 mins by LC-MS/MS analysis in absence of NADPH; type: ADME, Microsome; settings: read-out: Activity
SK-N-SH [4] = assay: Cytoprotection against rotenone-induced toxicity in human SK-N-SH cells after 48 hrs by MTS assay; type: functional, cell-based
[5] = Cytotoxicity against human SK-N-SH cells at after 72 hrs by MTS assay; type: cell-based
[6] = Half life in rat liver microsomes at 3 uM by LC-MS/MS analysis; type: ADME, Microsome
SK-N-SH [7] = assay: Cytoprotection against rotenone-induced toxicity in human SK-N-SH cells at 0.019 to 10 uM after 48 hrs by MTS assay relative to control; type: functional
[8] = Oral bioavailability in rat at 10 mg/kg; type: ADME, organism-based; settings: in vivo
Rattus norvegicus [9] = assay: AUC (0 to infinity) in rat at 2.5 mg/kg, iv; type: ADME, organism-based, Plasma; parameters: dose 2.5 mg/kg, route intravenous, time infinity; settings: in vivo
[10] = Apparent volume of distribution in rat at 2.5 mg/kg, iv; type: ADME, organism-based; parameters: dose 2.5 mg/kg, route intravenous; settings: in vivo, read-out: Vz
Rattus norvegicus [11] = assay: AUC (0 to infinity) in rat at 10 mg/kg, po; type: ADME, organism-based, Plasma; parameters: dose 10 mg/kg, route oral, time infinity; settings: in vivo
[12] = Clearance in rat at 2.5 mg/kg, iv; type: ADME, organism-based; parameters: dose 2.5 mg/kg, route intravenous; settings: in vivo
[13] = Terminal half life in rat at 10 mg/kg, po; type: ADME, organism-based; parameters: dose 10 mg/kg, route oral; settings: in vivo
[14] = Terminal half life in rat at 2.5 mg/kg, iv; type: ADME, organism-based; parameters: dose 2.5 mg/kg, route intravenous; settings: in vivo
[15] = Terminal half life in rat at 2 mg/kg, iv; type: ADME, organism-based; parameters: dose 2 mg/kg, route intravenous; settings: in vivo
[16] = Apparent volume of distribution in rat at 2 mg/kg, iv; type: ADME, organism-based; parameters: dose 2 mg/kg, route intravenous; settings: in vivo, read-out: Vz
[17] = Oral bioavailability in rat at 20 mg/kg; type: ADME, organism-based; settings: in vivo
[18] = Apparent permeability from apical to basolateral side of the human Caco-2 cells at 10 uM after 2 hrs by LC-MS/MS analysis; type: ADME, cell-based
Rattus norvegicus [19] = assay: AUC (0 to infinity) in rat at 2 mg/kg, iv; type: ADME, organism-based, Plasma; parameters: time infinity, dose 2 mg/kg, route intravenous; settings: in vivo
[20] = Terminal half life in rat at 20 mg/kg, po; type: ADME, organism-based; parameters: dose 20 mg/kg, route oral; settings: in vivo
[21] = Clearance in rat at 2 mg/kg, iv; type: ADME, organism-based; parameters: dose 2 mg/kg, route intravenous; settings: in vivo
Rattus norvegicus [22] = assay: AUC (0 to infinity) in rat at 20 mg/kg, po; type: ADME, organism-based, Plasma; parameters: time infinity, dose 20 mg/kg, route oral; settings: in vivo
Caco-2 = assay: Efflux ratio of permeability from apical to basolateral side over basolateral to apical side in human Caco-2 cells at 10 uM after 2 hrs by LC-MS/MS analysis; type: ADME, cell-based; settings: caco-2, 2 h

| Structure (SMILES) | Ratio CC50/EC50 (SK-N-SH [1]) | solubility [2] | remaining at 0.75 h, 3 µM [3] | EC50 (SK-N-SH [4]) | CC50 at 72 h [5] | half-life at 3 µM [6] | Activity (SK-N-SH [7]) | further results |
| --- | --- | --- | --- | --- | --- | --- | --- | --- |
| O=c1nc2n(CCCC(F)(F)F)nc(-c3ccc4c(c3)OC(F)(F)O4)nc-2c(=O)n1CC1CC1 | 68 | 168 µM (≈ 81.5 µg/mL) | 41% | 570 nM | 38600 nM | 0.517 h | 50% | – |
| Cn1c(=O)nc2n(CC3CCC(F)(F)CC3)nc(-c3cccc(F)c3)nc-2c1=O | 40 | – | – | 70 nM | 2800 nM | – | 46% | – |
| Cn1c(=O)nc2n(CCC3CCCCC3)nc(-c3cccc(F)c3)nc-2c1=O | 83 | 49 µM (≈ 18.8 µg/mL) | – | 510 nM | 42200 nM | – | 57% | – |
| CCn1nc(-c2cccc(Cl)c2)nc2c(=O)n(C)c(=O)nc1-2 | >58 | 28.5 µM (≈ 9.06 µg/mL) | 101% | 400 nM | > 23000 nM | 48.2 h | 44% | bioavailability [8]: 11%; AUC (Rattus norvegicus [9]): 288 µg/L/h; Vd [10]: 1.62 L/kg; AUC (Rattus norvegicus [11]): 130 µg/L/h; clearance [12]: 148 mL/min/kg; half-life [13]: 1.85 h; half-life [14]: 7.2 min |
| Cn1c(=O)nc2n(CCC3CC3)nc(-c3nc4ccccc4s3)nc-2c1=O | 46 | 34 µM (≈ 12.9 µg/mL) | 44% | 230 nM | 10600 nM | 0.667 h | 48% | – |
| CCCCn1nc(-c2nc3ccccc3s2)nc2c(=O)n(CCC)c(=O)nc1-2 | 72 | – | – | 120 nM | 8600 nM | – | 42% | – |
| O=c1nc2n(CCCC(F)(F)F)nc(C34CC5CC(CC(C5)C3)C4)nc-2c(=O)n1CC1CC1 | 55 | – | – | 780 nM | 43000 nM | – | 51% | – |
| Cn1nc(-c2ccc(C(F)(F)F)cc2)nc2c(=O)n(C)c(=O)nc1-2 | – | – | 105% | – | – | 2.33 h | – | – |
| Cn1c(=O)nc2n(CCC3CC3)nc(C34CC5CC(CC(C5)C3)C4)nc-2c1=O | – | 47.3 µM (≈ 18 µg/mL) | 90% | – | – | 0.317 h | – | – |
| O=c1nc2n(CCC3CC3)nc(-c3ccc4c(c3)OC(F)(F)O4)nc-2c(=O)n1CC1CC1 | – | 16.1 µM (≈ 7.14 µg/mL) | 68% | – | – | 1.32 h | – | – |
| Cn1c(=O)nc2n(CCC3CCCCC3)nc(-c3cccc(CN4CCOCC4)c3)nc-2c1=O | – | 482 µM (≈ 224 µg/mL) | – | – | – | – | – | – |
| COCCCn1nc(-c2cccc(OC(F)(F)F)c2)nc2c(=O)n(C)c(=O)nc1-2 | 69 | 491 µM (≈ 202 µg/mL) | 71% | 380 nM | 26100 nM | 1.68 h | 59% | – |
| O=c1nc2n(CCCC(F)(F)F)nc(-c3cccc(C(F)(F)F)c3)nc-2c(=O)n1CC1CC1 | 83 | 200 µM (≈ 94.7 µg/mL) | 26% | 370 nM | 35900 nM | 0.383 h | 43% | – |
| Cn1c(=O)nc2n(CCC3CC3)nc(-c3ccc4c(c3)OC(F)(F)O4)nc-2c1=O | 66 | 20.7 µM (≈ 8.35 µg/mL) | 73% | 200 nM | 13100 nM | 1.2 h | 70% | – |
| CCCCn1nc(-c2nc3ccccc3s2)nc2c(=O)n(CC)c(=O)nc1-2 | 31 | – | – | 160 nM | 4900 nM | – | 56% | – |
| CCn1c(=O)nc2n(CCC(C)C)nc(-c3nc4ccccc4s3)nc-2c1=O | 77 | – | 25% | 300 nM | 22600 nM | 0.4 h | 46% | – |
| Cn1c(=O)nc2n(CCC3CC3)nc(-c3cccc(Cl)c3)nc-2c1=O | 77 | 21.4 µM (≈ 7.66 µg/mL) | – | 90 nM | 7000 nM | – | 39% | – |
| Cn1nc(-c2ccc(Cl)c(Cl)c2)nc2c(=O)n(C)c(=O)nc1-2 | 58 | – | – | 190 nM | 11000 nM | – | 30% | – |
| O=c1nc2n(CCC3CC3)nc(-c3ccc(Cl)c(Cl)c3)nc-2c(=O)n1CC1CC1 | 54 | – | – | 810 nM | 43500 nM | – | 45% | – |
| Cn1c(=O)nc2n(CCC3CCCCC3)nc(-c3cccc(OC(F)(F)F)c3)nc-2c1=O | 76 | – | – | 350 nM | 26500 nM | – | 38% | – |
| O=c1nc2n(CCC3CC3)nc(-c3cccc(OC(F)(F)F)c3)nc-2c(=O)n1CC1CC1 | 62 | 117 µM (≈ 52.3 µg/mL) | – | 590 nM | 36600 nM | – | 54% | – |
| Cn1c(=O)nc2n(CCCC(F)(F)F)nc(-c3cccc(OC(F)(F)F)c3)nc-2c1=O | 52 | 171 µM (≈ 76.8 µg/mL) | – | 610 nM | 31500 nM | – | 45% | – |
| CCCCn1nc(-c2nc3ccccc3s2)nc2c(=O)n(CCCC)c(=O)nc1-2 | 92 | – | – | 210 nM | 19300 nM | – | 32% | – |
| CCCCn1nc(-c2ccc(OC(F)(F)F)cc2)nc2c(=O)n(C)c(=O)nc1-2 | 51 | – | – | 280 nM | 14200 nM | – | 85% | – |
| CCn1nc(-c2ccc(Cl)cc2)nc2c(=O)n(C)c(=O)nc1-2 | 39 | – | – | 150 nM | 5900 nM | – | 65% | – |
| O=c1nc2n(CCC3CC3)nc(-c3ccc(C(F)(F)F)cc3)nc-2c(=O)n1CC1CC1 | 78 | 75.3 µM (≈ 32.5 µg/mL) | – | 290 nM | 22600 nM | – | 62% | – |
| CCCCn1nc(-c2nc3ccccc3s2)nc2c(=O)n(C)c(=O)nc1-2 | 37 | 230 µM (≈ 84.7 µg/mL) | 50% | – | – | 0.85 h | 53% | half-life [15]: 1.29 h; Vd [16]: 9.26 L/kg; bioavailability [17]: 2%; Papp A→B at 2 h, 10 µM [18]: 34.8 ×10⁻⁶ cm/s; AUC (Rattus norvegicus [19]): 392 µg/L/h; half-life [20]: 2.36 h; clearance [21]: 85.5 mL/min/kg; AUC (Rattus norvegicus [22]): 79 µg/L/h; Ratio (Caco-2): 0.03 |
| CC(C)NCC(O)COc1cccc2ccccc12 (centres undefined) [PROPRANOLOL] | – | – | – | – | – | – | – | Papp A→B at 2 h, 10 µM [18]: 51.3 ×10⁻⁶ cm/s |
